We go through 21 compounds from patent US12421205B2, “GLP-1 receptor agonist” (HYUNDAI PHARM CO., LTD., priority 2019, dated 2025).

One data set deals with T1, human GLP-1 receptor (Homo sapiens, UniProt P43220).
T1 construct: host or cells: CHO-K1
The data set is described as follows: cAMP activity test (cAMP dynamic HTRF kit) in CHO-K1/GLP-1 receptor-expressing cells. The format is cell-based. As to conditions: cAMP activity, CHO-K1/GLP-1 receptor-expressing cells; read-out: EC50. The procedure: The next day, the medium was removed, and a 50 uL of HBSS medium containing 0.1% BSA, 0.5 mM IBMX, and 5 mM HEPES was added to each well. […] The cAMP activity was measured according to the manufacturer's instructions using the cAMP dynamic HTRF kit (Cisbio, 62AM4PEC). After incubation, the medium was discarded, and the cells were lysed. cAMP-d2 and anti-cAMP cryptate conjugate were added thereto and reacted for 3 hours. […] Intracellular cAMP competes with cAMP-d2 for anti-cAMP cryptate, and the measured signal of fluorescence resonance energy transfer (FRET) is inversely proportional to intracellular cAMP.
On the technique in general: TR-FRET usually uses a lanthanide donor and a delayed reading to cut background.

The target in a further data set is T2, hERG (Homo sapiens, UniProt Q12809).
T2 construct: purchased Invitrogen PV5365
The data set is described as follows: hERG inhibition test (Predictor hERG Fluorescence Polarization assay kit). The class given is binding. As to conditions: probe kit Tracer (fluorescent hERG ligand), hERG % inhibition at 10 uM, relative to E-4031 and solvent control. The method, then:
To measure the hERG (Human ether-a-go-go-related gene) channel inhibition rate of the compound according to the present invention, the following test was performed using a Predictor hERG Fluorescence Polarization assay kit (Invitrogen, PV5365).
Specifically, a test substance was dissolved in DMSO to prepare a 50 mM solution. A 4 mM solution was prepared by diluting the 50 mM solution with DMSO in a U bottom 96-well plate (SPL, 34096), and was then diluted 100-fold with a test buffer to prepare a 40 uM (4×) solution. The positive control E-4031 (3 mM) provided in the kit was diluted 25-fold with a test buffer to prepare a 120 uM solution) 5 uL of the diluted test substance solution was dispensed into a 384-well assay plate (corning, 3677). hERG Membrane (2×) and Tracer (4×) provided in the kit were respectively added at 10 uL and 5 uL, and then subjected to the reaction at room temperature for 2.5 hours. After completion of the reaction, fluorescence polarization (mP) was measured with a Multimode Plate Reader (Perkin-Elmer, Envision) (excitation wavelength of 531 nm, and emission wavelength 579 nm). The value of the percent inhibitory activity (% inhibition) at 10 uM of each test substance was calculated by the following equation, and the results are shown in Table 2: (% inhibition)=100−{(mP of the compound according to the present invention−E-4031 mP)/(mP of the solvent control−E-4031 mP)}×100

T1 sequence (P43220 24-463): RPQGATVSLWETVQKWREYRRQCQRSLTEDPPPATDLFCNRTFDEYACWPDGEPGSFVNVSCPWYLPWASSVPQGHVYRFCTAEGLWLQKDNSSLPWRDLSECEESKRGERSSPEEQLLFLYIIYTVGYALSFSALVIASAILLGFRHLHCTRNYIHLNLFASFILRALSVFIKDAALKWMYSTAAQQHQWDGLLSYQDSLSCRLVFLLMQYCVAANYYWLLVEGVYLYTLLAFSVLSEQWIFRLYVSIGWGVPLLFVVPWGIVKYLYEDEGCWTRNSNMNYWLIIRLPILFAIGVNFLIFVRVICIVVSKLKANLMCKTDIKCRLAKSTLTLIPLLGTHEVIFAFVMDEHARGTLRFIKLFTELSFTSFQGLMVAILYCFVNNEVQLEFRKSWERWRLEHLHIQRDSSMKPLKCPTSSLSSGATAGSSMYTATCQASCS
T2 sequence (Q12809 whole entry): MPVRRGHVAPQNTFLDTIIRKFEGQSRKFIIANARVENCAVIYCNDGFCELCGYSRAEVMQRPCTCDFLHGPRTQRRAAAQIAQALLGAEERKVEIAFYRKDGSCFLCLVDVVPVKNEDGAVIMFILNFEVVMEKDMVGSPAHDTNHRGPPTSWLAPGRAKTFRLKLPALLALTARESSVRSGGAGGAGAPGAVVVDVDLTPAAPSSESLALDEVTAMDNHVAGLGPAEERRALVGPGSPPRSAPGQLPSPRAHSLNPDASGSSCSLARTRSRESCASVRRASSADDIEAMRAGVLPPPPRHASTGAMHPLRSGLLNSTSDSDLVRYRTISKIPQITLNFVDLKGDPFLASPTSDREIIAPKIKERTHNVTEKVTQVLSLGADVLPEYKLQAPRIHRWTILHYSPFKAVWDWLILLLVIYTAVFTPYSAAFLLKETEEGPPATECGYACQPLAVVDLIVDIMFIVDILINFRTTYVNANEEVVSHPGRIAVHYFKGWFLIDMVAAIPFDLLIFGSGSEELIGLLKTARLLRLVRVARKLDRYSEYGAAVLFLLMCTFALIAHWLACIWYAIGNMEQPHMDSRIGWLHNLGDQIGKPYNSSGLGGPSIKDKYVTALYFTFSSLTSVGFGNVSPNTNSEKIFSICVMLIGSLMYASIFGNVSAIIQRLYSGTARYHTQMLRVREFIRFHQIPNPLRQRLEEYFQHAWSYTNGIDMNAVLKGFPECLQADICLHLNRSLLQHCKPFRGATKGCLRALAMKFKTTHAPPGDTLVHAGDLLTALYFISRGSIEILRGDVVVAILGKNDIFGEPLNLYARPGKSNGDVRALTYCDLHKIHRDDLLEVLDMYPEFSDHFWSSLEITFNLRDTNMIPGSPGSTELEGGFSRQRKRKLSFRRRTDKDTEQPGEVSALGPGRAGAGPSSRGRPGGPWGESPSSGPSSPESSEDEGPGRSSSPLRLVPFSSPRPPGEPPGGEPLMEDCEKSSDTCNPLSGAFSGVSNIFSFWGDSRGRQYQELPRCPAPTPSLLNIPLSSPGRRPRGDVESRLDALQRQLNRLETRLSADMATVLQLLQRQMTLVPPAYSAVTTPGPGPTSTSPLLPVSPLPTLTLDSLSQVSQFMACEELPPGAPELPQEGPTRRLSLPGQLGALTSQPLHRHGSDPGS

Turning to `O=C(O)c1ccc2nc(Cc3ccc(-c4cccc(OCc5ccncc5)n4)c(F)c3)n(C[C@@H]3CCO3)c2c1` [Example 128, (S)-2-(3-fluoro-4-(6-(pyridin-4-ylmethoxy)pyridin-2-yl)benzyl)-1-(oxetan-2-ylmethyl)-1H-benzo[d]imidazole-6-carboxylic acid], the EC50 (usually the concentration that produces a half-maximal response) on human GLP-1 receptor turned out to be 260 nM. On hERG, the inhibition (commonly the relative decrease from the control value, in per cent) at 2.5 h, 10 µM is -6.1%.
The like results for `COc1cc(-c2cccc(OCc3ccc(C#N)cc3F)n2)ccc1Cc1nc2ccc(C(=O)O)cc2n1CC1CCCO1` (centres unmarked) [Example 64, 2-(4-(6-(4-cyano-2-fluorobenzyloxy)pyridin-2-yl)-2-methoxybenzyl)-1-((tetrahydrofuran-2-yl)methyl)-1H-benzo[d]imidazole-6-carboxylic acid] were, in that order, 110 nM and -9.05%.
The like results for `O=C(O)c1ccc2nc(Cc3ccc(-c4cccc(OCc5ccc(Cl)cc5F)n4)cc3F)n(Cc3ccco3)c2c1` [Example 13, 2-(4-(6-(4-chloro-2-fluorobenzyloxy)pyridin-2-yl)-2-fluorobenzyl)-1-(furan-2-ylmethyl)-1H-benzo[d]imidazole-6-carboxylic acid] were, in that order, 35 nM and -7.76%.
The like results for `O=C(O)c1ccc2nc(Cc3ccc(-c4cccc(OCc5ccc(Cl)cc5F)n4)c(F)c3F)n(CC3CCCO3)c2c1` (centres unmarked) [Example 61, 2-(4-(6-(4-chloro-2-fluorobenzyloxy)pyridin-2-yl)-2,3-difluorobenzyl)-1-((tetrahydrofuran-2-yl)methyl)-1H-benzo[d]imidazole-6-carboxylic acid] were, in that order, 8.7 nM and -6.72%.
`N#Cc1ccc(COc2cccc(-c3ccc(Cc4nc5ccc(C(=O)O)cc5n4C[C@@H]4CCO4)c(F)c3)n2)c(F)c1` [Example 73, (S)-2-(4-(6-(4-cyano-2-fluorobenzyloxy)pyridin-2-yl)-2-fluorobenzyl)-1-(oxetan-2-ylmethyl)-1H-benzo[d]imidazole-6-carboxylic acid]: the inhibition at 2.5 h, 10 µM at hERG was -14.6%.
Take `N#Cc1ccc(COc2cccc(-c3cc(F)c(Cc4nc5ccc(C(=O)O)cc5n4C[C@@H]4CCO4)cc3F)n2)c(F)c1` [Example 115, (S)-2-(4-(6-((4-cyano-2-fluorobenzyl)oxy)pyridin-2-yl)-2,5-difluorobenzyl)-1-(oxetan-2-ylmethyl)-1H-benzo[d]imidazole-6-carboxylic acid]: at human GLP-1 receptor, the EC50 was below 3.2 nM. For the same compound, the inhibition at 2.5 h, 10 µM on hERG was -2.45%.
The like results for `O=C(O)c1ccc2nc(Cc3ccc(-c4cccc(OCc5ccc(Cl)cc5F)n4)cc3F)n(Cc3cccs3)c2c1` [Example 49, 2-(4-(6-(4-chloro-2-fluorobenzyloxy)pyridin-2-yl)-2-fluorobenzyl)-1-(thiophen-2-ylmethyl)-1H-benzo[d]imidazole-6-carboxylic acid] were, in that order, 14 nM and 12.5%.
The like results for `COCCn1c(Cc2ccc(-c3cccc(OCc4ccc(Cl)cc4F)n3)c(C)c2)nc2ccc(C(=O)O)cc21` [Example 4, 2-(4-(6-(4-chloro-2-fluorobenzyloxy)pyridin-2-yl)-3-methylbenzyl)-1-(2-methoxyethyl)-1H-benzo[d]imidazole-6-carboxylic acid] were, in that order, 200 nM and -2.87%.
The like results for `O=C(O)c1ccc2nc(Cc3ccc(-c4cccc(OCc5ccc(C(F)(F)F)cc5)n4)c(F)c3)n(CC3CCCO3)c2c1` (centres unmarked) [Example 97, 2-(3-fluoro-4-(6-(4-(trifluoromethyl)benzyloxy)pyridin-2-yl)benzyl)-1-((tetrahydrofuran-2-yl)methyl)-1H-benzo[d]imidazole-6-carboxylic acid] were, in that order, 31 nM and 6.11%.
Turning to `N#Cc1ccc(COc2cccc(-c3ccc(Cc4nc5ccc(C(=O)O)cc5n4CCF)cc3F)n2)c(F)c1` [Example 58, 2-(4-(6-(4-cyano-2-fluorobenzyloxy)pyridin-2-yl)-3-fluorobenzyl)-1-(2-fluoroethyl)-1H-benzo[d]imidazole-6-carboxylic acid], at human GLP-1 receptor, the EC50 came to 170 nM. The inhibition at 2.5 h, 10 µM on hERG is 2.81%.
The like results for `O=C(O)c1ccc2nc(Cc3ccc(-c4cccc(OCc5ccc([N+](=O)[O-])cc5)n4)c(F)c3)n(C[C@@H]3CCO3)c2c1` [Example 124, (S)-2-(3-fluoro-4-(6-((4-nitrobenzyl)oxy)pyridin-2-yl)benzyl)-1-(oxetan-2-ylmethyl)-1H-benzo[d]imidazole-6-carboxylic acid] were, in that order, 4.3 nM and 7.28%.
The like results for `O=C(O)c1ccc2nc(Cc3ccc(-c4cccc(OCc5ccc(Cl)cc5F)c4)c(F)c3)n(C[C@H]3CCCO3)c2c1` [Example 42, (R)-2-((3′-(4-chloro-2-fluorobenzyloxy)-2-fluorobiphenyl-4-yl)methyl)-1-((tetrahydrofuran-2-yl)methyl)-1H-benzo[d]imidazole-6-carboxylic acid] were, in that order, 250 nM and -23.6%.
The like results for `O=C(O)c1ccc2nc(Cc3ccc(-c4cccc(OCc5ccc(Cl)cc5F)n4)cc3F)n(CCF)c2c1` [Example 43, 2-(4-(6-(4-chloro-2-fluorobenzyloxy)pyridin-2-yl)-2-fluorobenzyl)-1-(2-fluoroethyl)-1H-benzo[d]imidazole-6-carboxylic acid] were, in that order, 72 nM and -2.26%.
As to `COc1cccc(COc2cccc(-c3ccc(Cc4nc5ccc(C(=O)O)cc5n4Cc4ccco4)nc3)c2)c1` [Example 23, 1-(furan-2-ylmethyl)-2-((5-(3-(3-methoxybenzyloxy)phenyl)pyridin-2-yl)methyl)-1H-benzo[d]imidazole-6-carboxylic acid], at human GLP-1 receptor, the EC50 came out at 610 nM. The inhibition at 2.5 h, 10 µM on hERG is -6.89%.
`O=C(O)c1ccc2nc(Cc3ccc(-c4cccc(OCc5ccc(Cl)cc5F)n4)c(F)c3)n(C[C@@H]3CCCO3)c2c1` [Example 60, (S)-2-(4-(6-((4-chloro-2-fluorobenzyl)oxy)pyridin-2-yl)-3-fluorobenzyl)-1-((tetrahydrofuran-2-yl)methyl)-1H-benzo[d]imidazole-6-carboxylic acid]: the EC50 at human GLP-1 receptor is below 3.2 nM. The inhibition at 2.5 h, 10 µM on hERG is -5.42%.
Regarding `COCCn1c(Cc2ccc(-c3cccc(OCc4ccc(Cl)cc4F)n3)cc2F)nc2ccc(C(=O)O)cc21` [Example 3, 2-(4-(6-(4-chloro-2-fluorobenzyloxy)pyridin-2-yl)-2-fluorobenzyl)-1-(2-methoxyethyl)-1H-benzo[d]imidazole-6-carboxylic acid], on human GLP-1 receptor, the EC50 came to 32 nM. Moreover, the inhibition at 2.5 h, 10 µM at hERG is 8.39%.
In the case of `O=C(O)c1ccc2nc(Cc3ccc(-c4cccc(OCc5ccc(Cl)cc5F)c4)cc3F)n(C[C@H]3CCCO3)c2c1` [Example 41, (R)-2-((3′-(4-chloro-2-fluorobenzyloxy)-3-fluorobiphenyl-4-yl)methyl)-1-((tetrahydrofuran-2-yl)methyl)-1H-benzo[d]imidazole-6-carboxylic acid], the EC50 at human GLP-1 receptor was 110 nM. The inhibition at 2.5 h, 10 µM at hERG is -16%.
The like results for `O=C(O)c1ccc2nc(Cc3ccc(-c4cccc(OCc5c(F)cccc5Cl)n4)c(F)c3)n(C[C@@H]3CCO3)c2c1` [Example 126, (S)-2-(4-(6-((2-chloro-6-fluorobenzyl)oxy)pyridin-2-yl)-3-fluorobenzyl)-1-(oxetan-2-ylmethyl)-1H-benzo[d]imidazole-6-carboxylic acid] were, in that order, 510 nM and -3.99%.
Consider `O=C(O)c1ccc2nc(Cc3ccc(-c4cccc(OCC5CC5)n4)c(F)c3)n(C[C@@H]3CCO3)c2c1` [Example 135, (S)-2-(4-(6-(cyclopropylmethoxy)pyridin-2-yl)-3-fluorobenzyl)-1-(oxetan-2-ylmethyl)-1H-benzo[d]imidazole-6-carboxylic acid], for which the inhibition at 2.5 h, 10 µM at hERG was -14%.
The same measure, in the same setting: the result for `O=C(O)c1ccc2nc(Cc3ccc(-c4cccc(OCc5ccc(Cl)cc5)n4)c(F)c3)n(CC3CCCO3)c2c1` (centres unmarked) [Example 94, 2-(4-(6-(4-chlorobenzyloxy)pyridin-2-yl)-3-fluorobenzyl)-1-((tetrahydrofuran-2-yl)methyl)-1H-benzo[d]imidazole-6-carboxylic acid] reads 18.9%; that for `O=C(O)c1ccc2nc(Cc3ccc(-c4cccc(OCc5ccc(Cl)cc5F)n4)cc3F)n(C[C@@H]3CCO3)c2c1` [Example 78, (S)-2-(4-(6-(4-chloro-2-fluorobenzyloxy)pyridin-2-yl)-2-fluorobenzyl)-1-(oxetan-2-ylmethyl)-1H-benzo[d]imidazole-6-carboxylic acid], -17.9%.
